Legend:
[1] = Dissolution of isolated product in water; format: physicochemical; settings: observation
[2] = pH of aqueous solution; format: physicochemical; settings: 2% solution in water

CCCCCCCCCCCCCCCCCC[N+](C)(C)CCC[Si](OCC(CO)(CO)NCC(O)CS(=O)(=O)[O-])(OCC(CO)(CO)NCC(O)CS(=O)(=O)O)OCC(CO)(CO)NCC(O)CS(=O)(=O)O (centres unmarked) [Example 24, monosodium mono(8-(3-(dimethyl(octadecyl)ammonio)propyl)-2,14-dihydroxy-8-(3-hydroxy-2-((2-hydroxy-3-sulfopropyl)amino)-2-(hydroxymethyl)propoxy)-5,5,11,11-tetrakis(hydroxymethyl)-7,9-dioxa-4,12-diaza-8-silapentadecane-1,15-disulfonate); chloride]
dissolution in water [1]: readily dissolved in water
pH of solution [2]: 7.65

From patent US12264170B2, “Antimicrobial organosilanes” (TOPIKOS SCIENTIFIC, INC., priority 2019, dated 2025)
